Assay results: the supplement of paper PMC10307832

What was measured:
Test in all cases: relative viability (nuclei count vs DMSO), 5 days (fraction); higher = more cells survive
[1] = compound: CC(C)C[C@H](NC(=O)[C@H](CCc1ccccc1)NC(=O)CN1CCOCC1)C(=O)N[C@@H](Cc1ccccc1)C(=O)N[C@@H](CC(C)C)C(=O)[C@@]1(C)CO1 [Carfilzomib] + CC(=O)c1c(C)c2cnc(Nc3ccc(N4CCNCC4)cn3)nc2n(C2CCCC2)c1=O [Palbociclib] (partner 0.5 µM)
Outline: (§1)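 Each reported value is a median over duplicate plates. It expresses relative viability: treated-well nuclei count divided by vehicle-well nuclei count. Lung cancer cell lines in 1536-well plates were dosed by pin tool a day after seeding, alone with one drug or with a fixed anchor-drug dose plus five library-drug doses (not always all listed) in √10 steps, and nuclei were counted after 5 days.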

Crizotinib + OSI-027 = compound: C[C@@H](Oc1cc(-c2cnn(C3CCNCC3)c2)cnc1N)c1c(Cl)ccc(F)c1Cl [Crizotinib] + COc1cccc2cc(-c3nc([C@H]4CC[C@H](C(=O)O)CC4)n4ncnc(N)c34)[nH]c12 [OSI-027] (partner 0.5 µM)
Outline: as §1

Crizotinib + Pictilisib = compound: C[C@@H](Oc1cc(-c2cnn(C3CCNCC3)c2)cnc1N)c1c(Cl)ccc(F)c1Cl [Crizotinib] + CS(=O)(=O)N1CCN(Cc2cc3nc(-c4cccc5[nH]ncc45)nc(N4CCOCC4)c3s2)CC1 [Pictilisib] (partner 1 µM)
Outline: as §1

Crizotinib + Phenformin = compound: C[C@@H](Oc1cc(-c2cnn(C3CCNCC3)c2)cnc1N)c1c(Cl)ccc(F)c1Cl [Crizotinib] + N=C(N)NC(=N)NCCc1ccccc1 [Phenformin] (partner 250 µM)
Outline: as §1

Cell Line	relative viability ([1]; first compound 0.001 µM)	relative viability ([1]; first compound 0.003162 µM)	relative viability ([1]; first compound 0.01 µM)	relative viability ([1]; first compound 0.03162 µM)	relative viability ([1]; first compound 0.1 µM)	relative viability (Crizotinib + OSI-027; first compound 0.01 µM)	relative viability (Crizotinib + OSI-027; first compound 0.03162 µM)	relative viability (Crizotinib + OSI-027; first compound 0.1 µM)	relative viability (Crizotinib + OSI-027; first compound 1 µM)	relative viability (Crizotinib + Pictilisib; first compound 0.01 µM)	relative viability (Crizotinib + Pictilisib; first compound 0.03162 µM)	relative viability (Crizotinib + Pictilisib; first compound 0.1 µM)	relative viability (Crizotinib + Pictilisib; first compound 1 µM)	relative viability (Crizotinib + Phenformin; first compound 0.01 µM)	relative viability (Crizotinib + Phenformin; first compound 0.03162 µM)	relative viability (Crizotinib + Phenformin; first compound 0.1 µM)	relative viability (Crizotinib + Phenformin; first compound 1 µM)	relative viability (Crizotinib + OSI-027; first compound 0.3162 µM)	relative viability (Crizotinib + Pictilisib; first compound 0.3162 µM)	relative viability (Crizotinib + Phenformin; first compound 0.3162 µM)
NCI-H1734	0.346	0.382	0.354	0.315	0.105	0.592	0.606	0.473	0.555	0.419	0.406	0.381	0.39	0.358	0.368	0.385	0.367			
NCI-H1755	0.465	0.458	0.461	0.408	0.293	0.678	0.716	0.625	0.644	0.413	0.485	0.444	0.437	0.593	0.681	0.643	0.569	0.531	0.309	0.527
NCI-H1792	0.655	0.646	0.707	0.634	0.466	0.72	0.748	0.656	0.722	0.266	0.286	0.284	0.285		0.357	0.314	0.328		0.274	
NCI-H1915	0.479	0.513	0.521	0.514	0.0575	0.563	0.63	0.636	0.608	0.874	0.88	1.01	0.952	0.382	0.377	0.367	0.359			
NCI-H1944	0.318	0.361	0.372	0.318	0.152	0.396	0.421	0.402	0.397	0.322	0.341	0.328	0.343	0.19	0.194	0.189	0.198	0.391	0.344	0.195
NCI-H1975	0.364	0.635	0.472	0.119	0.107	0.72	0.812	0.755	0.721	0.28	0.294	0.308	0.266	0.376	0.419	0.4	0.399	0.754	0.344	0.41
NCI-H1993	0.667	0.658	0.641	0.723	0.383	0.564	0.507	0.543	0.563	0.682	0.823	0.761	0.748	0.493	0.51	0.534	0.509	0.516	0.667	0.507
NCI-H2009	0.186	0.275	0.201	0.0584	0.0475	0.704	0.611	0.64	0.642	0.607	0.83	0.799	0.782	0.479	0.492	0.513	0.458	0.594	0.688	0.426
